# Source: publication PMC4503722, “Novel Phenotypic Outcomes Identified for a Public Collection of Approved Drugs from a Publicly Accessible Panel of Assays” (PLoS ONE, 2015)
# Like-named read-outs stand apart in the source and are kept apart here.
# Experiments:
# NCI-H716 cells = assay: cells; assay type: cell-based, Human; settings: for IC50/EC50, hNCI-H716 GLP1 Secretion (assay number 12): concentration response
# STC-1 cell line = assay type: cell-based, mouse; settings: for IC50/EC50, mSTC-1 GLP1 Secretion (assay number 13): concentration response
# [1] = tested on: endothelial tube formation in co-cultures of ECFCs and ADSCs treated with VEGF; assay: cells; assay type: cell-based, human
# HeLa cells = assay: cells; assay type: cell-based; settings: for Hela CellCycMod PI 2N IC50/EC50: assay number 14; for Hela CellCycMod PI 4N IC50/EC50: assay number 16; for Hela CellCycMod PI MI IC50/EC50: assay number 17; for Hela CellCycMod PI Cell Number IC50/EC50: assay number 18; for Hela CellCycMod PI S Phase IC50/EC50: assay number 15
# [2] = tested on: ECFC/ADSC co-culture cell nuclei number
# SW480 = assay: cells; assay type: cell-based
# HCT116 = assay: cells; assay type: cell-based
# Colo320 = assay: cells; assay type: cell-based
# SNU-C1 = assay: cells; assay type: cell-based
# DLD-1 = assay: cells; assay type: cell-based
# RKO = assay: cells; assay type: cell-based
# HT-29 = assay: cells; assay type: cell-based; settings: assay number 28; basal
Compound,VEGF_ADSC\ECFC Angio CD31 TubeArea IC50/EC50 [1],VEGF_ADSC\ECFC Angio Hoechst NucArea IC50/EC50 [2],hNCI-H716 GLP1 Secretion IC50/EC50 (NCI-H716 cells; assay number 12),mSTC-1 GLP1 Secretion IC50/EC50 (STC-1 cell line; assay number 13),other results
Clc1ccccc1C(c1ccccc1)(c1ccccc1)n1ccnc1 [NCGC00015251-13],,,,,"IC50/EC50, hNCI-H716 GLP1 Secretion (assay number 12) (NCI-H716 cells): 20.2249 µM; IC50/EC50, mSTC-1 GLP1 Secretion (assay number 13) (STC-1 cell line): > 40 µM; IC50/EC50, VEGF_ADSC\ECFC Angio CD31 TubeArea (assay number 2) [1]: 3.0384 µM; IC50/EC50, Hela CellCycMod PI 2N (assay number 14) (HeLa cells; 2N): > 10 µM; IC50/EC50, Hela CellCycMod PI 4N (assay number 16) (HeLa cells; 4N): > 10 µM; IC50/EC50, Hela CellCycMod PI Cell Number (assay number 18) (HeLa cells; Cell Number): > 10 µM; IC50/EC50, Hela CellCycMod PI MI (assay number 17) (HeLa cells; MI): > 10 µM; IC50/EC50, Hela CellCycMod PI S Phase (assay number 15) (HeLa cells; S Phase): > 10 µM; IC50/EC50, VEGF_ADSC\ECFC Angio Hoechst NucArea (assay number 3) [2]: > 10 µM"
C[n+]1cc2c3c(ccc2c2ccc4cc5c(cc4c21)OCO5)OCO3 [NCGC00015959-09],0.5372 µM,0.9705 µM,,,Basal_Viability ATP SW480 IC50/EC50 (SW480): 0.3789 µM; Basal_Viability ATP HCT116 IC50/EC50 (HCT116): 0.5253 µM; hNCI-H716 GLP1 Secretion IC50/EC50 (NCI-H716 cells): > 40 µM; Basal_Viability ATP Colo 320 IC50/EC50 (Colo320): 0.3498 µM; Basal_Viability ATP SNU-C1 IC50/EC50 (SNU-C1): 0.3161 µM; mSTC-1 GLP1 Secretion IC50/EC50 (STC-1 cell line): > 40 µM; Basal_Viability ATP DLD-1 IC50/EC50 (DLD-1): 0.5755 µM; Basal_Viability ATP RKO IC50/EC50 (RKO): 0.2646 µM
CCCCCCCCCCCCCCCC[N+](C)(C)CCN(Cc1ccc(OC)cc1)c1ncccn1.[Br-] [NCGC00016507-05],3.0741 µM,> 10 µM,17.7844 µM,> 40 µM,Hela CellCycMod PI 2N IC50/EC50 (HeLa cells; 2N): > 10 µM; Hela CellCycMod PI 4N IC50/EC50 (HeLa cells; 4N): > 10 µM; Hela CellCycMod PI MI IC50/EC50 (HeLa cells; MI): > 10 µM; Hela CellCycMod PI Cell Number IC50/EC50 (HeLa cells): 0.3488 µM
Cc1cc(C(C)(C)CC(C)(C)C)ccc1OCCOCC[N+](C)(C)Cc1ccccc1 [NCGC00016789-06],> 10 µM,8.703 µM,12.042 µM,> 40 µM,
COc1cc2nc(N3CCN(C(=O)C4COc5ccccc5O4)CC3)nc(N)c2cc1OC.CS(=O)(=O)O (centres unmarked) [NCGC00018158-09],> 10 µM,> 10 µM,> 40 µM,10.6547 µM,
Clc1ccc(CSC(Cn2ccnc2)c2ccc(Cl)cc2Cl)cc1.O=[N+]([O-])O (centres unmarked) [NCGC00018250-06],2.1282 µM,8.757 µM,20.9915 µM,> 40 µM,
CC[C@H](C)C(=O)O[C@H]1C[C@@H](C)C=C2C=C[C@H](C)[C@H](CC[C@@H]3C[C@@H](O)CC(=O)O3)[C@H]21 [NCGC00023509-13],3.2658 µM,> 10 µM,32.895 µM,> 40 µM,Hela CellCycMod PI 2N IC50/EC50 (HeLa cells; 2N): > 10 µM; Hela CellCycMod PI S Phase IC50/EC50 (HeLa cells): > 10 µM; Hela CellCycMod PI 4N IC50/EC50 (HeLa cells; 4N): > 10 µM; Hela CellCycMod PI MI IC50/EC50 (HeLa cells; MI): > 10 µM; Hela CellCycMod PI Cell Number IC50/EC50 (HeLa cells): > 10 µM
[O-][S+](c1cc(Cl)cc(Cl)c1O)c1cc(Cl)cc(Cl)c1O [NCGC00160554-02],> 10 µM,> 10 µM,19.7164 µM,> 40 µM,
CC(C)(C)CC(C)(C)c1ccc(O)cc1 [NCGC00164127-07],> 10 µM,9.1112 µM,25.8625 µM,8.3699 µM,
CCCCCCCC/C=C\CCCCCCCCN [NCGC00164329-03],> 10 µM,9.128 µM,14.7555 µM,> 40 µM,
CC(O)C(=O)O.CCCCCCCCCCCCCCNCCO [NCGC00164503-02],> 10 µM,9.1871 µM,13.5546 µM,> 20 µM,
O=C(O)C[CH2][Ge](=[O])[O][Ge](=[O])[CH2]CC(=O)O [NCGC00164525-02],0.1546 µM,0.2606 µM,1.5271 µM,0.7932 µM,Hela CellCycMod PI 2N IC50/EC50 (HeLa cells; 2N): > 10 µM; Hela CellCycMod PI S Phase IC50/EC50 (HeLa cells): > 10 µM; Hela CellCycMod PI 4N IC50/EC50 (HeLa cells; 4N): > 10 µM; Hela CellCycMod PI MI IC50/EC50 (HeLa cells; MI): > 10 µM; Hela CellCycMod PI Cell Number IC50/EC50 (HeLa cells): 0.5034 µM
OC1(c2ccc(Cl)c(C(F)(F)F)c2)CCN(CCCC(c2ccc(F)cc2)c2ccc(F)cc2)CC1 [NCGC00165865-02],,,8.448 µM,> 40 µM,"Basal_Viability ATP HCT116 IC50/EC50 (HCT116; assay number 25, basal): 1.853 µM; Basal_Viability ATP Colo 320 IC50/EC50 (Colo320; assay number 27, basal): 0.9617 µM; Basal_Viability ATP SNU-C1 IC50/EC50 (SNU-C1; assay number 30, basal): 0.1675 µM; Basal_Viability ATP DLD-1 IC50/EC50 (DLD-1; assay number 23, basal): 1.1393 µM; Basal_Viability ATP RKO IC50/EC50 (RKO; assay number 29, basal): 0.9712 µM; Basal_Viability ATP HT-29 IC50/EC50 (HT-29): 0.9459 µM"
CC1=C(C(=O)OC(C)C)C(c2cccc([N+](=O)[O-])c2)C(C(=O)OC2CN(C(c3ccccc3)c3ccccc3)C2)=C(N)N1 (centres unmarked) [NCGC00167436-02],3.5833 µM,7.394 µM,12.7519 µM,1.234 µM,
Clc1ccc(CO/N=C(\Cn2ccnc2)c2ccc(Cl)cc2Cl)c(Cl)c1.O=[N+]([O-])O [NCGC00177980-03],> 10 µM,8.846 µM,> 40 µM,> 40 µM,
C[C@@H](NCCCc1cccc(C(F)(F)F)c1)c1cccc2ccccc12.Cl [NCGC00181002-04],> 10 µM,> 10 µM,17.1869 µM,> 40 µM,
O=C(Nc1ccc(S(=O)(=O)N2CCOCC2)cc1)c1cc(Cl)ccc1NS(=O)(=O)c1ccc(Cl)s1 [NCGC00249417-02],> 10 µM,> 10 µM,> 40 µM,> 40 µM,
O=c1[nH]sc2cc(Cl)ccc12 [NCGC00262908-01],,,,,"IC50/EC50, hNCI-H716 GLP1 Secretion (assay number 12) (NCI-H716 cells): > 40 µM; IC50/EC50, mSTC-1 GLP1 Secretion (assay number 13) (STC-1 cell line): > 40 µM; IC50/EC50, VEGF_ADSC\ECFC Angio CD31 TubeArea (assay number 2) [1]: > 10 µM; IC50/EC50, VEGF_ADSC\ECFC Angio Hoechst NucArea (assay number 3) [2]: 9.427 µM"
Cl.Nc1cc(C(F)(F)F)ccc1S [NCGC00262926-01],> 10 µM,> 10 µM,15.3214 µM,1.1561 µM,
COc1ccc(OC(=O)N(CC(=O)O)Cc2ccc(OCCc3nc(-c4ccccc4)oc3C)cc2)cc1 [NCGC00262954-01],,,36.168 µM,1.5351 µM,
[Cl][Pt+2][Cl].[NH2-].[NH2-] [NCGC00263537-01],,,,,"IC50/EC50, hNCI-H716 GLP1 Secretion (assay number 12) (NCI-H716 cells): > 40 µM; IC50/EC50, mSTC-1 GLP1 Secretion (assay number 13) (STC-1 cell line): > 40 µM"
CN(C)[C@@H]1C(=O)C(C(=O)NCN2CCCC2)=C(O)[C@@]2(O)C(=O)C3=C(O)c4c(O)cccc4[C@@](C)(O)[C@H]3C[C@@H]12 [NCGC00263906-02],,,> 40 µM,> 40 µM,
propagermanium [reference compound],,,,,activity in NCI-H716 GLP-1 secretion assay (in words) (NCI-H716 cells): potent actives; activity in STC-1 GLP-1 secretion assay (in words) (STC-1 cell line): potent actives
